Test results published in US8618154B2, “LXR modulators” (Bristol-Myers Squibb Company, priority 2009, dated 2013).
Read-outs that look alike come from different tables or passages of the source.

Molecular target: T1, LXRα (Homo sapiens, UniProt Q13133)
T1 construct: Co-transfection expression plasmids, comprising full-length LXRα (pCMX-h LXRα); expressed in transfected cells; host or cells: CV-1 African green monkey kidney cells, transient transfection with FuGENE6
T1 sequence (Q13133 1-447): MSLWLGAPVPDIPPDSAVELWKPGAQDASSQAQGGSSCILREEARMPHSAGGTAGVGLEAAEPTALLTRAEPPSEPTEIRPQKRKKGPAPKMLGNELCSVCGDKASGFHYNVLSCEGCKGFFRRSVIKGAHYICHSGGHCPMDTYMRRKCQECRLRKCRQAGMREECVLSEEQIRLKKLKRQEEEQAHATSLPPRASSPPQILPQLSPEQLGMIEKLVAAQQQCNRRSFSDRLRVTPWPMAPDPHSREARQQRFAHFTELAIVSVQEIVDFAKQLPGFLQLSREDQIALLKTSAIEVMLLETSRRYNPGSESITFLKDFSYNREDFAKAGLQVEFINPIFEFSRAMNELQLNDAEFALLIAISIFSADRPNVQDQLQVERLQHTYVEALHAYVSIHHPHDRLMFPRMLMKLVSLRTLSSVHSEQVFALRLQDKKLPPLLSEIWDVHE
T1 sequence (P19793 1-462 partner): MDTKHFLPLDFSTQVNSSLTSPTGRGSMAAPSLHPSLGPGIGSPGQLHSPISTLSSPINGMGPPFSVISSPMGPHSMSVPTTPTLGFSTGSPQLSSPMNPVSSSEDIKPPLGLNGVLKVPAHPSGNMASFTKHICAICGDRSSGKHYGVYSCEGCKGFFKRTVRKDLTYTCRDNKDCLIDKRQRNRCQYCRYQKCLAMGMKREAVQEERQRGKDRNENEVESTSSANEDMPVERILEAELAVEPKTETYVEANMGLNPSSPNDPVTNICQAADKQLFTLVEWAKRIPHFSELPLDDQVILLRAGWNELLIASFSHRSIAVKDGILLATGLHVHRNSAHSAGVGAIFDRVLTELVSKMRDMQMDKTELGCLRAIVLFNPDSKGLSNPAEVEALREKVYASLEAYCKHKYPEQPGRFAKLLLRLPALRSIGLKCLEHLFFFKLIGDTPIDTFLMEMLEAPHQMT
Assay: LXR/LXRE co-transfection assay (LXRα)
Assay type: cell-based
Settings: for EC50: CV-1 cells, LXRE luciferase reporter; for Emax: read-out: LXRα Eff (%)
Text: To measure the ability of compounds to activate or inhibit the transcriptional activity of LXR in a cell based assay, the co-transfection assay was used. It has been shown that LXR functions as a heterodimer with RXR. For the co-transfection assay, expression plasmids for LXRα and LXRβ are introduced separately via transient transfection into mammalian cells along with a luciferase reporter plasmid that contains one copy of a DNA sequence that is bound by LXR-RXR heterodimers (LXRE; Willy, P. et. al. 1995). LXRs heterodimerize with the endogenous RXR. Treatment of transfected cells with an LXR agonist increases the transcriptional activity of LXR, which is measured by an increase in luciferase activity.
Co-transfection expression plasmids, comprising full-length LXRα (pCMX-h LXRα or LXRβ (pCMX-hLXRβ), reporter plasmid (LXREx1-Tk-Luciferase), and control (pCMX-Galactosidase expression vector) (Willey et al. Genes & Development 9 1033-1045 (1995)).
CV-1 cells were prepared 24 hours prior to the experiment by plating them into T-175 flasks or 500 cm^2 dishes in order to achieve 70-80% confluency on the day of the transfection. The number of cells to be transfected was determined by the number of plates to be screened. Each well of a 384 well plate requires ˜8000 cells. DNA Transfection Reagent was prepared by mixing the required plasmid DNAs with a cationic lipid transfection reagent FuGENE6 (Roche) by following the instructions provided with the reagents. Optimal DNA amounts were determined empirically per cell line and size of vessel to be transfected. For each T175 cm^2 flask a total of 20 μg of DNA, 60 μl of Fugene 6 and 1 ml of Optimem was mixed and added. Cells were then incubated at least 5 hours at 37° C. to prepare screening cells.
Assay plates were prepared by dispensing 5 μL, of compound per well of a 384 well plate to achieve final compound concentration of 10 μM and no more than 0.5% DMSO. Media was removed from the screening cells, the cells trypsinized, harvested cells by centrifugation, counted, and plated at a density of approximately 8000 cells per well in the 384 well assay plate prepared above in a volume of about 45 μL. Assay plates containing both compounds and screening cells (50 μL, in total volume) were incubated for 20 hours at 37° C.
After incubation with compounds, media was removed from the cells and luciferase assay reagent (30 μL/well) added. After ˜2 minutes at ambient temperature, the assay plates were read on a luminometer (PE Biosystems Northstar reader with on-board injectors, or equivalent).
The LXR/LXRE co-transfection assay can be used to establish the EC50/IC50 values for potency and percent activity or inhibition for efficacy. Efficacy defines the activity of a compound relative to a high control ((N-(3-((4-fluorophenyl)-(naphthalene-2-sulfonyl)amino)propyl)-2,2-dimethylpropionamide)) or a low control (DMSO/vehicle). The dose response curves are generated from a 10 point curve with concentrations differing by ½ LOG units.
The data from this assay is fitted to the following equation, from which the EC50 value may be solved: Y=Bottom+(Top−Bottom)/(1+10^((logEC50-X)*HillSlope)).
The EC50/IC50 is therefore defined as the concentration at which an agonist or antagonist elicits a response that is half way between the Top (maximum) and Bottom (baseline) values. The EC50/IC50 values represented are the averages of at least 2 and normally 3 independent experiments. The determination of the relative efficacy or % control for an agonist is by comparison to the maximum response achieved by ((N-(3-((4-fluorophenyl)-(naphthalene-2-sulfonyl)-amino)propyl)-2,2-dimethylpropionamide) that is measured individually in each dose response experiment.

[1] = efficacy relative to high control N-(3-((4-fluorophenyl)-(naphthalene-2-sulfonyl)amino)propyl)-2,2-dimethylpropionamide

SMILES	EC50 [nM]	Emax [1] [%]	Emax [%]
Cc1ccccc1Cc1nc(C(C)(C)O)cn1-c1ccc(-c2cc(F)c(CO)c(S(C)(=O)=O)c2)cc1 [Example 17, 2-(1-(3′-fluoro-4′-(hydroxymethyl)-5′-(methylsulfonyl)biphenyl-4-yl)-2-(2-methylbenzyl)-1H-imidazol-4-yl)propan-2-ol]	101 to 1000	13	
CC(C)(O)c1cn(-c2ccc(-c3cc(F)c(CO)c(S(C)(=O)=O)c3)cc2)c(Cc2c(Cl)cccc2Cl)n1 [Example 18, 2-(2-(2,6-dichlorobenzyl)-1-(3′-fluoro-4′-(hydroxymethyl)-5′-(methylsulfonyl)biphenyl-4-yl)-1H-imidazol-4-yl)propan-2-ol]	< 100	17	
CC(C)(O)c1cn(-c2ccc(-c3cc(F)c(CO)c(S(C)(=O)=O)c3)cc2)c(Cc2cc(F)ccc2Cl)n1 [Example 19, 2-[2-(2-Chloro-5-fluoro-benzyl)-1-(3′-fluoro-4′-hydroxymethyl-5′-methanesulfonyl-biphenyl-4-yl)-1H-imidazol-4-yl]-propan-2-ol]	> 1000		
CC(C)(O)c1cn(-c2ccc(-c3cc(F)c(CO)c(S(C)(=O)=O)c3)cc2F)c(Cc2ccccc2Cl)n1 [Example 20, 2-[2-(2-Chloro-benzyl)-1-(3,3′-difluoro-4′-hydroxymethyl-5′-methanesulfonyl-biphenyl-4-yl)-1H-imidazol-4-yl]-propan-2-ol]	101 to 1000	15	
CC(c1c(Cl)cccc1Cl)c1nc(C(C)(C)O)cn1-c1ccc(-c2cc(F)c(CO)c(S(C)(=O)=O)c2)cc1F (stereo not drawn) [Example 21, 2-{2-[1-(2,6-dichlorophenyl)ethyl]-1-[3,3′-difluoro-4′-(hydroxymethyl)-5′-(methylsulfonyl)biphenyl-4-yl]-1H-imidazol-4-yl}propan-2-ol]	< 100		18
